Reference: PMC11802822, “Comprehensive safety and toxicity analysis of 2,2’-Bipyridine derivatives in combating MRSA biofilm formation and persistence” (Frontiers in Cellular and Infection Microbiology, 2025)
≈ marks a conversion by molar mass, not a printed value.

How the values were obtained:
MTCC 737 persister cells = test: Persister killing assay; type: cell-based, Staphylococcus aureus; details: S. aureus persisters
Experimental: To evaluate the persister-killing activity of 2,2’-Bipy derivatives, MTCC 737 and MRSA 831 cells were grown overnight to the stationary phase at 37°C ([Kim et al., 2018b]). […] The bacterial densities of persisters were recorded at OD600 at hourly intervals from 0 to 6 h.

MRSA 831 [1] = test: Biofilm imaging by confocal laser scanning microscopy (SYTO 9/PI); type: cell-based, methicillin-resistant S. aureus; details: derivatives 100 µg/ml, 24 h
Excerpt: Untreated wells were used as a control. […] Using SYTO 9 and PI dyes. […] Two independent experiments were done in triplicate.

MTCC 737 [2] = test: Neutropenic thigh infection model in mice; type: in vivo, Staphylococcus aureus; details: neutropenic BALB/c mice, MTCC 737 10^6 CFU/ml, oral 30 mg/kg, 48 h, vs untreated group
red blood cells = details: ref Chen et al., 2011; Papalia et al., 2021; cited from earlier work
S. aureus (MTCC737) [3] = test: Agar well diffusion; details: Staphylococcus aureus, MTCC737
MRSA 831 (MRSA) = test: Agar well diffusion; details: Staphylococcus aureus, MRSA
S. aureus (MTCC737) [4] = test: Broth microdilution MIC; details: Staphylococcus aureus, MTCC737, 18 h, read-out: Minimum inhibitory concentration
MRSA 831 [5] = test: Broth microdilution MIC; details: Staphylococcus aureus, MRSA, 18 h, read-out: Minimum inhibitory concentration
MTCC 737 [6] = test: Transmission electron microscopy; details: S. aureus MTCC 737; 100 µg/ml, 12 h
MRSA 831 [7] = test: Transmission electron microscopy; details: 100 µg/ml, 12 h
MRSA 831 [8] = test: Neutropenic thigh infection model in mice; details: neutropenic BALB/c mice, MRSA 831 10^8 CFU/ml, oral 30 mg/kg, after 2 h and 24 h, vs untreated control
MTCC 737 [9] = test: Biofilm imaging by confocal laser scanning microscopy (SYTO 9/PI); details: derivatives 100 µg/ml, 24 h

CN[C@H](CC(C)C)C(=O)N[C@H]1C(=O)N[C@@H](CC(N)=O)C(=O)N[C@H]2C(=O)N[C@H]3C(=O)N[C@H](C(=O)N[C@H](C(=O)O)c4cc(O)cc(O)c4-c4cc3ccc4O)[C@H](O)c3ccc(c(Cl)c3)Oc3cc2cc(c3O[C@@H]2O[C@H](CO)[C@@H](O)[C@H](O)[C@H]2O[C@H]2C[C@](C)(N)[C@H](O)[C@H](C)O2)Oc2ccc(cc2Cl)[C@H]1O [Vancomycin, reference compound]
Concentration showing similar activity on persister cell counts (MTCC 737 persister cells): 100 µg/mL | Biofilm disruption (CLSM) (MRSA 831 [1]): effective biofilm disruption and severe cell damage | Reduction in the bacterial load in thigh tissue (MTCC 737 [2]): approximately 1.9 log10 | Concentration up to which non-hemolytic (red blood cells): up to 32 µg/ml | zone of inhibition at 50 µg/mL (S. aureus (MTCC737) [3]): 14 mm | zone of inhibition at 50 µg/mL (MRSA 831 (MRSA)): 12 mm | MIC (S. aureus (MTCC737) [4]): 6.25 µg/mL (≈ 4.31 µM) | MIC (MRSA 831 [5]): 6.25 µg/mL (≈ 4.31 µM) | Cell morphology (TEM) (MTCC 737 [6]): distorted morphology | Cell morphology (TEM) (MRSA 831 [7]): distorted morphology | Reduction in the bacterial load in thigh tissue (MRSA 831 [8]): approximately 1.9 log10 | Biofilm disruption (CLSM) (MTCC 737 [9]): effective biofilm disruption and severe cell damage
